From patent US9029337B2, “Modulation of factor 7 expression” (Isis Pharmaceuticals, Inc., priority 2007, dated 2015)
Strand notation (5' to 3'): a small letter for the sugar, then the base; units joined by * are phosphorothioate-linked, units joined directly phosphodiester-linked; [ ] holds rarer units or linkages, { } end groups; capitals alone tell only the bases. e = 2'-O-(2-methoxyethyl) (MOE); [5mC] = 5-methylcytosine; d = 2'-deoxy (DNA)

System: human Factor 7 mRNA
Test: Antisense inhibition of human Factor 7 mRNA in HepB3 cells, 50 nM antisense oligonucleotide, lipofectin
Type: cell-based
Details: for % Inhibition: lipofectin, approximately 24 hours; for % Inhibition of human Factor 7 mRNA levels: gapmers targeted to nucleobases 4868 to 4899 of SEQ ID NO: 1, Table 8
How it was run: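 Seeding density was 4,000 cells per well. Following roughly 24 hours of oligonucleotide treatment, RNA was extracted and Factor 7 message quantified using the RTS 2927 primer probe set. Levels were corrected for RIBOGREEN® total RNA and expressed against untreated controls.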

[1] = Table 1, 50 nM, relative to untreated control cells
[2] = 50 nM antisense oligonucleotide, Factor 7 mRNA by real-time RT-PCR (RTS 2927), relative to untreated control
[3] = oligonucleotides targeted to nucleobases 15098 to 15122 of SEQ ID NO: 1 (Table 12)
[4] = oligonucleotides targeted to nucleobases 11830 to 11869 of SEQ ID NO: 1 (Table 9)

407913 (antisense eG*eA*eT*eG*e[5mC]*d[5mC]*d[5mC]*dG*dT*d[5mC]*dA*dG*dG*dT*dA*e[5mC]*e[5mC]*eA*e[5mC]*eG) [compound 407913]
% Inhibition [1]: 74%

407664 (antisense e[5mC]*eA*eG*eG*eG*d[5mC]*dG*dA*dG*dG*d[5mC]*dA*dA*d[5mC]*d[5mC]*e[5mC]*e[5mC]*eG*eT*eG) [compound 407664]
% Inhibition [1]: 70%

416440 (antisense eG*eG*eA*e[5mC]*eT*dG*dG*dA*dG*d[5mC]*dT*dG*dG*dT*d[5mC]*e[5mC]*eT*eT*eG*e[5mC]) [compound 416440]
% Inhibition [2]: 44%

422116 (antisense eT*eG*e[5mC]*eG*e[5mC]*d[5mC]*dA*d[5mC]*d[5mC]*d[5mC]*dG*d[5mC]*d[5mC]*dG*dG*e[5mC]*eT*e[5mC]*eT*eG) [compound 422116]
% Inhibition (human Factor 7 mRNA levels) (oligonucleotides targeted to nucleobases 13760 to 13789 of SEQ ID NO: 1 (Table 10)): 52%

407637 (antisense eG*eT*eA*e[5mC]*eT*dG*dG*dG*dA*dG*dA*d[5mC]*d[5mC]*d[5mC]*dT*eG*eG*eT*eG*eT) [compound 407637]
% Inhibition [1]: 71%

407919 (antisense eT*e[5mC]*eG*eA*eT*dG*dT*dA*d[5mC]*dT*dG*dG*dG*dA*dG*eA*e[5mC]*e[5mC]*e[5mC]*eT) [compound 407919]
% Inhibition [1]: 84%

422212 (antisense eG*eA*e[5mC]*dA*dG*d[5mC]*dA*d[5mC]*dA*d[5mC]*dA*dT*dG*dG*dA*dG*dT*e[5mC]*eA*eG) [compound 422212]
% Inhibition (human Factor 7 mRNA levels) [3]: 30%

407942 (antisense e[5mC]*eA*e[5mC]*eA*eG*dG*dT*dG*dT*dG*d[5mC]*dG*dG*dA*dG*eG*eA*eG*eA*e[5mC]) [compound 407942]
% Inhibition [1]: 41%

422249 (antisense eT*eG*dG*d[5mC]*dT*dG*dA*dG*dG*dA*dG*dA*d[5mC]*dA*dA*eT*eG*eG*eT*e[5mC]) [compound 422249]
% Inhibition (human Factor 7 mRNA levels) [4]: 52%

416559 (antisense eG*e[5mC]*e[5mC]*eA*eT*dT*dT*d[5mC]*dT*dA*dG*dG*dT*d[5mC]*dT*eG*e[5mC]*eA*eG*eG) [compound 416559]
% Inhibition [2]: 25%

407959 (antisense eG*e[5mC]*eA*eG*eG*dG*dA*dT*dG*dG*d[5mC]*dA*dT*d[5mC]*dG*eA*eG*eT*e[5mC]*e[5mC]) [compound 407959]
% Inhibition [1]: 0%

407646 (antisense eG*eG*eT*eG*eA*dT*dG*d[5mC]*dT*dT*d[5mC]*dT*dG*dA*dA*eT*eT*eG*eT*e[5mC]) [compound 407646]
% Inhibition [1]: 81%

422284 (antisense e[5mC]*eA*d[5mC]*dA*d[5mC]*dA*dT*dG*dG*dA*dG*dT*d[5mC]*dA*dG*e[5mC]*eA*eT*e[5mC]*eG) [compound 422284]
% Inhibition (human Factor 7 mRNA levels) [3]: 43%

422146 (antisense eA*eG*e[5mC]*e[5mC]*e[5mC]*dG*dA*dG*dT*dT*d[5mC]*dT*dG*d[5mC]*dA*eG*eG*eA*eG*e[5mC]) [compound 422146]
% Inhibition of human Factor 7 mRNA levels: 58%

407622 (antisense eT*e[5mC]*eA*e[5mC]*e[5mC]*dA*dA*d[5mC]*dA*dA*d[5mC]*dA*dG*dG*dA*e[5mC]*e[5mC]*eT*eG*e[5mC]) [compound 407622]
% Inhibition [1]: 55%

416506 (antisense e[5mC]*eT*eT*eT*eA*dA*dA*dA*dT*d[5mC]*dA*dG*dT*dT*dT*e[5mC]*eA*e[5mC]*eA*e[5mC]) [compound 416506]
% Inhibition [2]: 18%

422138 (antisense eT*e[5mC]*eT*eG*e[5mC]*dA*dG*dG*dA*dG*d[5mC]*dG*dG*d[5mC]*d[5mC]*eT*eA*eA*eA*eT) [compound 422138]
% Inhibition of human Factor 7 mRNA levels: 70%

422272 (antisense eA*e[5mC]*dT*dG*dA*dG*d[5mC]*dG*d[5mC]*dG*dG*dA*dA*dG*dA*eA*eG*eG*eG*eA) [compound 422272]
% Inhibition (Table 6, 50 nM): 12%

422232 (antisense eG*eT*d[5mC]*dA*dG*dG*dG*d[5mC]*dT*dG*dG*dT*dT*dT*dT*eG*eG*eA*eG*eG) [compound 422232]
% Inhibition (human Factor 7 mRNA levels) [4]: 41%

416490 (antisense eA*e[5mC]*eT*e[5mC]*eA*dG*d[5mC]*dA*dA*dG*dA*dG*dT*dG*d[5mC]*eA*eG*e[5mC]*eT*eT) [compound 416490]
% Inhibition [2]: 33%

416476 (antisense eG*e[5mC]*eA*eG*eG*dT*dG*dG*dG*d[5mC]*dT*dT*dG*dG*d[5mC]*eT*eG*eA*eA*eG) [compound 416476]
% Inhibition [2]: 58%

422143 (antisense e[5mC]*e[5mC]*eG*eA*eG*dT*dT*d[5mC]*dT*dG*d[5mC]*dA*dG*dG*dA*eG*e[5mC]*eG*eG*e[5mC]) [compound 422143]
% Inhibition of human Factor 7 mRNA levels: 70%

416468 (antisense eT*eG*eG*eG*eA*dG*dA*d[5mC]*d[5mC]*d[5mC]*dT*dG*dG*dT*dG*eT*eA*e[5mC]*eA*e[5mC]) [compound 416468]
% Inhibition [2]: 46%

407601 (antisense e[5mC]*eA*eG*e[5mC]*e[5mC]*d[5mC]*dT*dG*dA*dA*dG*d[5mC]*d[5mC]*d[5mC]*dA*eA*eG*e[5mC]*eA*eG) [compound 407601]
% Inhibition [1]: 52%

407623 (antisense eT*e[5mC]*e[5mC]*eA*eT*dT*d[5mC]*dA*d[5mC]*d[5mC]*dA*dA*d[5mC]*dA*dA*e[5mC]*eA*eG*eG*eA) [compound 407623]
% Inhibition [1]: 69%

407650 (antisense e[5mC]*e[5mC]*eA*eT*eG*dT*dG*dA*dG*dG*dG*dT*dT*d[5mC]*dA*eT*eT*eT*e[5mC]*eA) [compound 407650]
% Inhibition [1]: 39%

407961 (antisense eA*eA*eG*eT*eA*dG*dA*dT*dG*dA*dT*dG*d[5mC]*d[5mC]*dT*eG*eA*eG*eT*eG) [compound 407961]
% Inhibition [1]: 34%

422248 (antisense eG*eG*d[5mC]*dT*dG*dA*dG*dG*dA*dG*dA*d[5mC]*dA*dA*dT*eG*eG*eT*e[5mC]*eA) [compound 422248]
% Inhibition (human Factor 7 mRNA levels) [4]: 60%

422147 (antisense eG*eA*eG*e[5mC]*e[5mC]*d[5mC]*dG*dA*dG*dT*dT*d[5mC]*dT*dG*d[5mC]*eA*eG*eG*eA*eG) [compound 422147]
% Inhibition of human Factor 7 mRNA levels: 64%

407956 (antisense eA*eA*e[5mC]*eT*eT*dG*d[5mC]*dA*dT*dT*dT*dA*dG*dT*dG*eA*eT*eG*e[5mC]*eG) [compound 407956]
% Inhibition [1]: 19%

422158 (antisense eA*eT*eG*dG*dT*d[5mC]*dA*dG*dG*dG*d[5mC]*dT*dG*dG*dT*dT*dT*eT*eG*eG) [compound 422158]
% Inhibition (human Factor 7 mRNA levels) [4]: 49%

416534 (antisense eA*eT*eG*e[5mC]*eA*d[5mC]*dA*d[5mC]*d[5mC]*dA*dG*dG*dG*d[5mC]*dT*eG*e[5mC]*eT*eG*eG) [compound 416534]
% Inhibition [2]: 32%

422121 (antisense eG*e[5mC]*eG*e[5mC]*eG*dG*dA*dA*dG*dA*dA*dG*dG*dG*dA*e[5mC]*eG*eG*eA*eA) [compound 422121]
% Inhibition (Table 6, 50 nM): 43%

416487 (antisense eG*e[5mC]*eA*eG*eG*dT*dG*d[5mC]*dT*d[5mC]*d[5mC]*d[5mC]*dA*dG*dG*eG*eT*e[5mC]*eT*e[5mC]) [compound 416487]
% Inhibition [2]: 39%

407941 (antisense eG*eA*eG*eA*e[5mC]*dG*d[5mC]*dA*dG*d[5mC]*d[5mC]*dG*dT*dT*dT*eA*eT*eT*eG*eT) [compound 407941]
% Inhibition [1]: 65%

422247 (antisense eG*e[5mC]*dT*dG*dA*dG*dG*dA*dG*dA*d[5mC]*dA*dA*dT*dG*eG*eT*e[5mC]*eA*eG) [compound 422247]
% Inhibition (human Factor 7 mRNA levels) [4]: 36%

416533 (antisense eG*e[5mC]*eA*eT*eT*d[5mC]*dT*dG*dG*dA*d[5mC]*d[5mC]*d[5mC]*dA*dG*eA*eT*eG*eA*e[5mC]) [compound 416533]
% Inhibition [2]: 41%

422161 (antisense eA*e[5mC]*eA*dA*dT*dG*dG*dT*d[5mC]*dA*dG*dG*dG*d[5mC]*dT*dG*dG*eT*eT*eT) [compound 422161]
% Inhibition (human Factor 7 mRNA levels) [4]: 53%

422170 (antisense eG*e[5mC]*eT*dG*dA*dG*dG*dA*dG*dA*d[5mC]*dA*dA*dT*dG*dG*dT*e[5mC]*eA*eG) [compound 422170]
% Inhibition (human Factor 7 mRNA levels) [4]: 28%

422289 (antisense eG*eA*d[5mC]*dA*dG*d[5mC]*dA*d[5mC]*dA*d[5mC]*dA*dT*dG*dG*dA*eG*eT*e[5mC]*eA*eG) [compound 422289]
% Inhibition (human Factor 7 mRNA levels) [3]: 34%

407667 (antisense eG*eT*eG*eG*e[5mC]*d[5mC]*dA*dT*dG*d[5mC]*d[5mC]*d[5mC]*dT*dG*dG*eG*eT*e[5mC]*eA*eG) [compound 407667]
% Inhibition [1]: 71%

416513 (antisense e[5mC]*eT*eG*eA*eT*dG*dT*dG*dA*dA*dA*dA*d[5mC]*d[5mC]*dG*eG*e[5mC]*eA*eT*eG) [compound 416513]
% Inhibition [2]: 37%

416540 (antisense eG*eG*eA*e[5mC]*eT*dG*dG*dT*dG*dT*d[5mC]*dA*dT*d[5mC]*dT*eG*eG*eG*eA*e[5mC]) [compound 416540]
% Inhibition [2]: 38%

407963 (antisense eA*eG*eA*eG*e[5mC]*dA*dG*dG*dG*dT*dG*d[5mC]*d[5mC]*dT*dT*eG*eG*eA*eA*eG) [compound 407963]
% Inhibition [1]: 33%

422291 (antisense eT*eT*d[5mC]*dT*dG*d[5mC]*dA*dG*dG*dA*dG*d[5mC]*dG*dG*d[5mC]*e[5mC]*eT*eA*eA*eA) [compound 422291]
% Inhibition of human Factor 7 mRNA levels: 53%

416434 (antisense e[5mC]*eT*eG*eT*eA*dA*dG*dA*dA*dA*dT*d[5mC]*d[5mC]*dA*dG*eA*eA*e[5mC]*eA*eG) [compound 416434]
% Inhibition [2]: 0%
